Values belong to the compound of their own block, whether it stands above or below them.
Columns and labels:
U87 cells = experiment: MTT assay; type: cell-based; details: U87 glioblastoma cells
tumor cells = experiment: in vivo confocal imaging of PARPi-fl in tumor cells (cell population drug kinetics)
Excerpt: Concentration rapidly increases after a bolus dose followed by a slow decay (top).

[1] = clearance from circulation and metabolic stability after IV injection; type: in vivo, mice
FaDu cells = experiment: flow cytometry of PARPi-fl uptake with and without irradiation; type: cell-based, human
Method: (§1) First, cells were irradiated with 0, 2, 4 and 10 Gy in 25 cm^2 culture flasks using the J.L. Shepherd Cesium irradiator (J.L. Shepherd, San Fernando, Calif.) at a dose rate of 174 cGy/min. […] Following a wash with PBS, cells were trypsinized, counted, and portions of 0.5×10^6 cells of the single cell suspension were aliquoted into 1.5 ml Eppendorf tubes (Eppendorf, Hamburg, Germany). For each time point and irradiation dose, samples were either left unstained, were stained with PARPi-fl or olaparib/PARPi-fl. […] For staining, cells were washed with 1 ml FACS buffer (1% BSA (w/v) in PBS). […] Next, cells were centrifuged, the supernatant was aspirated and cells were re-suspended in 0.5 ml FACS buffer and transferred to 5 ml round bottom flow cytometry tubes (BD Biosciences, Bedford, Mass.) through a 40 μm strainer to remove doublets and left on ice until measurement in the flow cytometer (LSR® II, BD Biosciences, Bedford, Mass.). For each measurement, 10,000 events were counted. Raw data were processed in FlowJo software in order to calculate the changes in PARPi-fl uptake after irradiation. Cell clumps and debris were eliminated using the corresponding gates (forward and side scatter) for the unstained cell population. The gates were applied to all stained samples. PARPi-fl fluorescence was imaged in the FITC channel against side scatter (area).

Ca127 cells = experiment: as above; type: cell-based, human
Method: as §1

[2] = system: orthotopic tongue tumors (FaDutdTomato); experiment: topical application of PARPi-fl on orthotopic tongue tumors, confocal microscopy; type: in vivo, mice; details: one minute application
Method: For topical application, the tongues were dipped into a well of a 96-well plate filled with the respective incubation solution. […] This was followed by cleaning of the tongue with an alcohol pad to remove residual unbound compound. The animals were imaged in the IVIS Spectrum before and after PARPi-fl application using the appropriate filter sets for detection of PARPi-fl and the tdTomato fluorescent protein. Spectral unmixing was used to separate the signals for tdTomato, PARPi-fl and autofluorescence. The tdTomato fluorescent protein allows in vivo localization of the tumor. For comparability, all images were scaled to the same maximum radiant efficiency. Imaging was repeated with sections of the excised tongues after cryofixation. […] Adjacent sections were H&E stained for morphological evaluation.

PARP1 = target: T1, PARP1 (Homo sapiens, UniProt P09874); experiment: correlation of PARPi-fl fluorescence with PARP1 antibody staining in FaDu tumor sections; type: in vivo; details: nuclear area, 222 pairs
T1 construct: endogenous in cells; host or cells: FaDu (human hypopharyngeal SCC, ATCC) subcutaneous xenografts in athymic nude mice
T1 sequence (P09874 whole entry, species assumed): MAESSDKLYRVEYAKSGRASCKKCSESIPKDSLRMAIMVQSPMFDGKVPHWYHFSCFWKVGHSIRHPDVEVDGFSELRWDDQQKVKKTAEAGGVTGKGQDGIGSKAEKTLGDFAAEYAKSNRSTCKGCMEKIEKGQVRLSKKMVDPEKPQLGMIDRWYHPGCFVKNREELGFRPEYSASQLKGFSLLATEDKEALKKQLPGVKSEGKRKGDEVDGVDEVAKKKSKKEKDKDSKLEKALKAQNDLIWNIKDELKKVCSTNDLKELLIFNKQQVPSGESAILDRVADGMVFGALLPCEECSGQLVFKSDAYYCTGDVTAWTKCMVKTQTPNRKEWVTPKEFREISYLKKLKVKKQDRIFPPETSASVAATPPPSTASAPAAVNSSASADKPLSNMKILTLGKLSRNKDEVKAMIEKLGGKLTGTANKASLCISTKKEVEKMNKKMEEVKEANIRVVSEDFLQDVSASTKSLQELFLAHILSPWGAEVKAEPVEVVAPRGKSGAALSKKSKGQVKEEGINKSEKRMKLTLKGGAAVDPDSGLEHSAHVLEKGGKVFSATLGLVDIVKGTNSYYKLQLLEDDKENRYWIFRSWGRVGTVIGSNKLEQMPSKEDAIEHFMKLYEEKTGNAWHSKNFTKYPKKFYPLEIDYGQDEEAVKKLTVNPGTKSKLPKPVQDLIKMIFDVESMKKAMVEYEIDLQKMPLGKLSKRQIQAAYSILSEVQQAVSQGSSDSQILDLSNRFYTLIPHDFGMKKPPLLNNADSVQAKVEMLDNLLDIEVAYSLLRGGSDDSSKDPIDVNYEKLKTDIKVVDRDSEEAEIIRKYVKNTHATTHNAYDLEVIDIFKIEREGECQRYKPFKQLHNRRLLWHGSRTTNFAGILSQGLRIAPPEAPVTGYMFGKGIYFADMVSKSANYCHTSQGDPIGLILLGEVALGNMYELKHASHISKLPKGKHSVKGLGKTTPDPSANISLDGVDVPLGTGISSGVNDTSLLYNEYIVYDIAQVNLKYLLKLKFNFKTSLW
Method: 222 xy pairs pooled from n=3 tumor sections.
Next, 10 μm cryosections were fixed in 4% paraformaldehyde for 8 minutes, followed by blocking with 3% (v/v) goat serum (Sigma-Aldrich, St. Louis, Mo.) in PBS. Antibodies were diluted in 1% (w/v) BSA and 0.3% (v/v) Triton X-100 in PBS. Anti-PARP1 primary antibody (sc-7150, Santa Cruz Biotechnology, Santa Cruz, Calif.) was incubated overnight at 4° C. (1 μg/ml), followed by three 10-minute washes with PBS and incubation with secondary AlexaFluor® 680 goat anti-rabbit antibody (A21076, Molecular Probes, Eugene, Oreg.) for 1 hour at 4° C. (2 μg/ml). After another 5-minute PBS wash, sections were mounted with Mowiol® (Sigma-Aldrich, St. Louis, Mo.) containing Hoechst 33342 DNA Stain (Sigma-Aldrich, St. Louis, Mo.). […] Incubating sections with either a nonspecific rabbit IgG or PBS instead of primary antibody confirmed binding specificity.

U251 cells = experiment: MTT assay; type: cell-based; details: U251 glioblastoma cells
FaDu tumors = experiment: fluorescence endomicroscopy of excised FaDu tumors and control tissues; type: in vivo, mice; details: 90 minutes after PARPi-fl injection
Method: FaDu xenografts were imaged with a fluorescence endoscope that is available for both clinical and preclinical imaging (Cellvizio, Mauna Kea Technologies, Paris, France). It provides cellular to subcellular resolution and has a flexible confocal microprobe that enables versatile imaging. […] The microprobe was slowly moved over the tumor, tongue, or muscle, while a real-time video was recorded using a 488 nm excitation beam. The videos were converted to grayscale and the intensity was measured in 10 frames per video using ImageJ 1.49e Software. Topical application of PARPi-fl

[3] = toxicity after local administration on the oral mucosa; type: in vivo; details: mice
Method: […]. Mice received blood draws after 24 h and 48 h post administration, and were then sacrificed to receive a full necropsy.

[4] = pharmacokinetic profile of ^18F-PARPi in a tumor-free mouse; type: in vivo
Method: Bone uptake amounts for 6% ID/g. While low, imaging in larger mammals typically reduces bone-uptake further due to slower metabolic degradation.
The blood half-life, serum stability, and metabolic stability of ^18F-PARPi was determined. Blood half-lives were determined after the injection of ˜15 μCi of the ^18F-labeled species into C57BL/6J (B6) mice and blood (5-10 μL) drawn at different time points via saphenous vein bleeds. FIGS. 13A-13B show an image acquired at 60 minutes. The drawn blood was both counted as well as analyzed using a HPLC-MS equipped with both a fluorescence detector as well as a parallel radiodetector. Organs were homogenized. Next, the bimodal imaging agent was extracted and radioactive/fluorescent metabolites were analyzed using HPLC. All major organs were weighed, and their […] activity was measured using a scintillation counter. The injected dose per gram tissue (% ID/g) was determined.

[5] = cited from earlier work
subcutaneous FaDu tumors = experiment: ex vivo epifluorescence imaging of PARPi-fl uptake, subcutaneous FaDu xenografts and normal tissues
Method: Animals were sacrificed 90 minutes post-injection and tumors, tongues, trachea, and muscle were excised and imaged using epifluorescence imaging (IVIS Spectrum, PerkinElmer, Waltham, Mass.). […] This measure carries the unit [p/s/cm^2/sr]/[μW/cm^2] and is defined as the number of photons per second leaving a square centimeter of tissue and radiating into a solid angle of one steradian (sr).

[6] = 48 hours after 10 Gy irradiation
[7] = oral mucosa, 20 μl of 400 μM solution
[8] = topical oral mucosa, 29 nmol in 50 μL, 10 min
[9] = non-irradiated, olaparib co-incubated with PARPi-fl (50-fold excess)

Compound: Cc1cc(C)n2c1C=C1C=CC(CCC(=O)N3CCN(C(=O)c4cc(Cc5n[nH]c(=O)c6ccccc56)ccc4F)CC3)=[N+]1[B-]2(F)F [PARPi-fl]
IC50 (U87 cells): 24 µM
average cellular drug concentration (tumor cells; tumor cells in vivo after bolus dose, FIG. 9B): 1.2 µM
cells targeted within tumor tissue (tumor cells; uptake within tumor tissue): greater than 99.8%
concentration in targeted tumor cells (tumor cells; uptake within tumor tissue): 1900 ± 500 nM
metabolites ([1]; mice, 30 min post injection): less than 50%
β half-life ([1]; mice, IV injection, clearance from circulation): 1.47 h
time of peak uptake in subcutaneous tumors ([1]; post injection): 30 min
tissue permeability (tissue permeability): 4.7±2.5 μm/s
PARPi-fl signal compared to non-irradiated cells (FaDu cells; [6]): 145.4±7.3%
PARPi-fl signal compared to non-irradiated cells (Ca127 cells; [6]): 136.0±16.6%
penetration depth into tumor tissue [2]: up to 300 μm
co-localization with PARP1 antibody staining, Rcoloc. (PARP1): 0.986
IC50 (U251 cells): 5.5 µM
average signal intensity (FaDu tumors; FaDu tumors): 35.4±8.6 AU
average signal intensity (FaDu tumors; thigh muscle): 15.1±2.4 AU
average signal intensity (FaDu tumors; tongue): 18.5±6.9 AU
changes in clinical chemical and hematologic parameters [3, 7]: no changes
local irritation [3, 7]: no local irritation
ALP [3, 8]: 90 ± 18 IU/L
ALT (SGPT) [3, 8]: 31 ± 6 IU/L
AST (SGOT) [3, 8]: 67 ± 4 IU/L
Albumin [3, 8]: 2.7 ± 0.2 g/dL
BA % [3, 8]: 0.2 ± 0.3%
BASOPHILS [3, 8]: 0.01 ± 0.02 K/μL
BUN [3, 8]: 28 ± 2 mg/dL
Calcium [3, 8]: 9.6 ± 0.2 mg/dL
Chloride [3, 8]: 114 ± 1 mEq/L
Cholesterol [3, 8]: 86 ± 8 mg/dL
Creatinine [3, 8]: 0.24 ± 0.01 mg/dL
EO % [3, 8]: 5.5 ± 1.0%
EOSINOPHIL [3, 8]: 0.64 ± 0.55 K/μL
GGT [3, 8]: 0 IU/L
Globulin [3, 8]: 2.3 ± 0.7 g/dL
Glucose [3, 8]: 229 ± 54 mg/dL
HB [3, 8]: 15.1 ± 0.9 g/dL
HCT [3, 8]: 50.4 ± 2.9%
LY % [3, 8]: 57.0 ± 10.9%
LYMPHOCYT [3, 8]: 3.34 ± 1.07 K/μL
MCH [3, 8]: 14.7 ± 0.4 pg
MCHC [3, 8]: 30.0 ± 0.1 g/dL
MCV [3, 8]: 49.3 ± 1.2 fL
MO % [3, 8]: 1.9 ± 0.8%
MONOCYTE [3, 8]: 0.10 ± 0.04 K/μL
MPV [3, 8]: 6.1 ± 0.2 fL
NE % [3, 8]: 29.5 ± 4.0%
NEUTROPHI [3, 8]: 1.69 ± 0.04 K/μL
PLT [3, 8]: 1077 ± 171 K/μL
Phosphorus [3, 8]: 6 ± 1 mg/dL
Potassium [3, 8]: 3.8 ± 0.7 mEq/L
RBC [3, 8]: 10.24 ± 0.62 M/μL
RDW [3, 8]: 23.4 ± 0.6%
Sodium [3, 8]: 151 ± 3 mEq/L
Total Bilirubin [3, 8]: 0.1 ± 0.0 mg/dL
Total Protein [3, 8]: 4.9 ± 0.8 g/dL
WBC [3, 8]: 5.78 ± 0.90 K/μL

bone uptake [4]: 6 % ID/g
Compound: CC1=CC(C)=[N+]2C1=Cc1ccc(CCC(=O)N3CCN(C(=O)c4cc(Cc5n[nH]c(=O)c6ccccc56)ccc4F)CC3)n1[B-]2(F)[18F] (stereo not shown) [^18F-PARPi]

Compound: O=C(c1cc(Cc2n[nH]c(=O)c3ccccc23)ccc1F)N1CCN(C(=O)C2CC2)CC1 [olaparib, 4-[(3-[(4-cyclopropyl-carbonyl)piperazin-4-yl]carbonyl)-4-fluorophenyl]methyl (2H)phthalazin-1-one]
IC50 (U87 cells; Homo sapiens, U-87 MG): 28 µM
excreted ([5]; ^14C-labeled olaparib, within 7 days): More than 86%
terminal half-life ([5]; after a 400 mg dose): 11.9 h
tolerability ([5]; approved dose and schedule, 400 mg orally twice daily): well tolerated
apparent volume of distribution ([5]; oral administration): more than 150 L
time of peak plasma concentrations after dosing ([5]; oral administration): 1 to 3 h
effect on PARPi-fl uptake (FaDu cells; [9]): almost completely suppressed
effect on PARPi-fl uptake (Ca127 cells; [9]): almost completely suppressed
inhibition of PARPi-fl tumor uptake by xenografts (subcutaneous FaDu tumors; coinjection with PARPi-fl): almost completely inhibited
reduction of the fluorescent signal of the tumor (subcutaneous FaDu tumors; olaparib injected before PARPi-fl (50-fold excess, 30 min prior)): 60%
IC50 (U251 cells; Homo sapiens, U-251): 8 µM

Reference: patent publication US20230065522A1 (Memorial Sloan Kettering Cancer Center, priority 2015, published 2023)
